According to PubChem BioAssay (NCI):
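The compound was tested at five concentrations on cells cultured in 96-well plates, with a 48-hour exposure period. TGI denotes the concentration required for complete inhibition of growth.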 Where a SMILES comes first, the peptide text is derived from it. The star is where a group is joined. Boc = CC(C)(C)OC(=O)*

Experiments:
Assay in all cases: DTP human tumour cell line panel, 48 h
MOLT-4 leukemia = test system: MOLT-4 leukemia
HOP-92 NSCLC = test system: HOP-92 NSCLC
SF-268 CNS = test system: SF-268 CNS
EKVX NSCLC = test system: EKVX NSCLC
IGROV1 ovarian = test system: IGROV1 ovarian
HS 578T breast = test system: HS 578T breast
OVCAR-8 ovarian = test system: OVCAR-8 ovarian
CCRF-CEM leukemia = test system: CCRF-CEM leukemia
SN12C renal = test system: SN12C renal
HT29 colon = test system: HT29 colon
HCT-15 colon = test system: HCT-15 colon
ACHN renal = test system: ACHN renal
A498 renal = test system: A498 renal
K-562 leukemia = test system: K-562 leukemia
HL-60(TB) leukemia = test system: HL-60(TB) leukemia
T-47D breast = test system: T-47D breast

Structure (SMILES) | TGI (MOLT-4 leukemia) [µM] | TGI (HOP-92 NSCLC) [µM] | TGI (SF-268 CNS) [µM] | TGI (EKVX NSCLC) [µM] | TGI (IGROV1 ovarian) [µM] | TGI (HS 578T breast) [µM] | TGI (OVCAR-8 ovarian) [µM] | TGI (CCRF-CEM leukemia) [µM] | TGI (SN12C renal) [µM] | TGI (HT29 colon) [µM] | TGI (HCT-15 colon) [µM] | TGI (ACHN renal) [µM] | TGI (A498 renal) [µM] | TGI (K-562 leukemia) [µM] | TGI (HL-60(TB) leukemia) [µM] | TGI (T-47D breast) [µM]
CCN1C(=O)c2cc(OC)c(OC)cc2C(=O)C12OC(=O)c1cc3c(cc12)OCO3 (stereo not given) | > 100 | > 100 | > 100 | > 100 | > 100 | > 100 | > 100 | > 100 | > 100 | > 100 | > 100 | > 100 | > 100 | > 100 |  | 
O=C1NC(=O)C2C(=O)NC(=O)C1C2c1c(Cl)cccc1Cl (stereo not given) | > 100 | > 100 | > 96.7 | > 100 | > 100 |  | > 100 | > 69.6 | > 100 | > 100 | > 100 | > 100 | > 100 | > 71.7 | > 63.4 | 
COC(=O)[C@H](CCSC)NC(=O)N[C@H](C)c1ccccc1 | > 100 | > 100 | > 100 | > 100 | > 100 | > 100 | > 100 | > 100 | > 100 | > 100 | > 100 | > 100 | > 100 | > 100 | > 100 | 
N#CC1C(=O)NC23CCCCC2C1c1ccccc1O3 (stereo not given) | > 100 | > 100 | > 100 | > 100 | > 100 |  | > 100 | > 100 |  | > 100 | > 100 | > 100 | > 100 | > 100 | > 100 | 
CCn1c2ccccc2c2ccc3c(c21)C(=O)C=CC3=O | 17.2 | 30.3 | 40 | 30 | 14.8 |  | 29 | > 100 | 33.5 | 42.1 | 25.7 | 30.2 |  | 9.19 | 12.9 | 
CC(=O)C1C(=O)C(=O)N(c2cccc([N+](=O)[O-])c2)C1=O (stereo not given) | > 100 | > 100 | > 100 | > 100 | > 100 | > 100 | > 100 | > 100 | > 100 | > 100 | > 100 | > 100 |  |  | > 100 | 
COc1ccc2c(c1)C(=O)C1CC(=O)CCC21 (stereo not given) | > 100 | > 100 | > 100 | > 100 | > 100 |  | > 100 | > 100 | > 100 | > 100 | > 100 | > 100 | > 100 | > 100 | > 100 | 
Cc1[nH]c2ccccc2c1C(=O)CC1(O)C(=O)Nc2c(Cl)cc(Cl)cc21 (stereo not given) | 55.1 |  | 57.3 |  | > 100 |  | 70.4 | 47.9 | 55.6 | > 100 | > 100 | 53.5 | 67.4 | 58 | 37.6 | 
O=S1(=O)OCCOS(=O)(=O)C1(F)Br | > 100 |  | > 100 | > 100 |  | > 100 | > 100 | > 100 | > 100 | > 100 | > 100 | > 100 |  | > 100 | > 100 | > 100
CC(=O)NC(CCCNC(=O)N(CCCl)N=O)C(=O)NCc1ccccc1 (stereo not given) | > 100 | > 100 | > 100 | > 100 | > 100 |  | > 100 | > 100 | > 100 | > 100 | > 100 | > 100 |  | > 100 | > 100 | 
O=C1OC(Cc2ccccc2)(N2CCCC2=O)C1c1ccccc1 (stereo not given) | > 100 | > 100 | > 100 | > 100 |  |  | > 100 | > 100 | > 100 | > 100 |  | > 100 | > 100 | > 100 | > 100 | 
CC(C)(C)OC(=O)NC(Cc1ccc(O)cc1)C(=O)N1CCCC1C(=O)O (stereo not drawn) (Boc-Tyr-Pro-OH; configuration not given here) | > 100 | > 100 | > 100 | > 100 | > 100 |  | > 100 | > 100 | > 100 | > 100 | > 100 | > 100 | > 100 | > 100 | > 100 | 
CC(C)(C)OC(=O)NC(Cc1ccccc1)OCc1ccccc1 (stereo not given) | 77.6 |  | 36.2 | 35.9 | > 10 | 51.5 | 39.9 |  | 50.4 | 44.5 | 36.1 | 35 |  | 66.2 |  | 39.8
COc1cccc(NC(=O)CSc2nnc(-c3ccc(NC(C)=O)cc3)o2)c1 | > 100 | > 100 | > 100 |  | > 100 |  | > 100 | > 100 | > 100 | > 100 | > 100 | > 100 |  | > 100 | > 100 | 
COc1cc2c(c(OC)c1)/C(=C/Sc1ccccc1)C(=O)N(C(C)(C)C)C2 | > 100 | 38.8 | 39 | > 100 | 82.8 |  | 79.6 | > 100 | 69 | 75.1 | 91.9 | > 100 | 78.1 | > 100 | 59.9 | > 100
CC1(C)C=Cc2c(cc(O)c3c(=O)c4cc(Cl)ccc4[nH]c23)O1 | 8.22 | 7.79 | > 10 | > 10 | > 10 |  | > 10 | > 10 | > 10 | > 10 | > 10 | > 10 |  | > 10 | 6.6 | > 10
COc1ccc(CC2(O)C3CC4CCC2C4C3)cc1 (stereo not given) | > 100 | > 100 | > 100 | > 100 | > 100 | > 100 | > 100 | > 100 | > 100 | > 100 | > 100 | > 100 |  | > 100 | > 100 | 

Structure (SMILES) | TGI (MOLT-4 leukemia) [µM] | TGI (HOP-92 NSCLC) [µM] | TGI (SF-268 CNS) [µM] | TGI (EKVX NSCLC) [µM] | TGI (IGROV1 ovarian) [µM] | TGI (HS 578T breast) [µM] | TGI (OVCAR-8 ovarian) [µM] | TGI (CCRF-CEM leukemia) [µM] | TGI (SN12C renal) [µM] | TGI (HT29 colon) [µM] | TGI (HCT-15 colon) [µM] | TGI (ACHN renal) [µM] | TGI (A498 renal) [µM] | TGI (K-562 leukemia) [µM] | TGI (HL-60(TB) leukemia) [µM] | TGI (T-47D breast) [µM]
CN(N=O)C(=O)ON1C(=O)CCC1=O | > 100 | > 100 | > 100 | > 100 | > 100 |  | > 100 | > 100 |  | > 100 | > 100 | > 100 | > 100 | > 100 | > 100 | 
NC(N)=NCC[C@H](NC(=O)OCCCCCn1ccc(=O)[nH]c1=O)C(=O)O | > 100 | > 100 | > 100 | > 100 |  | > 100 | > 100 | > 100 | > 100 | > 100 | > 100 | > 100 |  | > 100 | > 100 | > 100
O=C1C(Cl)=C(Nc2ccc(S(=O)(=O)O)cc2)C(=O)c2ccccc21 | > 100 | 34.6 | > 100 | 52.5 | > 100 | 52.8 | 90.6 | > 100 |  | > 100 | > 100 | 45.8 |  | 94.2 | > 100 | 
Clc1ccc(Nc2nc3ccccc3nc2-c2cccs2)cc1Cl | > 100 | 78.8 | > 100 | > 100 |  |  | 68.6 | > 100 | > 100 | > 100 | > 100 | > 100 |  |  | 78.3 | 
C/C=C1\CN2CCc3c([nH]c4ccccc34)C2CC1C(=O)OC (stereo not given) | > 322 | > 322 | > 322 | > 322 | > 322 |  | > 322 | > 322 | > 322 | > 322 | > 322 | > 322 |  | > 322 | > 32.2 | 
COc1cccc(OC)c1C(=O)OCc1ccccc1 | > 100 | > 100 | > 100 | > 100 | > 100 |  | > 100 | > 100 | > 100 | > 100 | > 100 | > 100 |  | > 100 | > 100 | 
CC1(C)OC(=O)C(C#N)=C1/C=C/c1coc2ccc(Cl)cc2c1=O | 94.1 |  | > 100 | > 100 | > 100 |  | 74.6 | 87 | 96 |  | 87.2 |  |  | > 100 |  | 
CC(=O)CN(Cc1cc(C)c2c(c1)c1ccccc1n2Cc1ccccc1)S(=O)(=O)c1ccc(C)cc1 | > 100 | > 100 | > 100 | > 100 | > 100 |  | > 100 | > 100 |  | > 100 |  |  |  | > 100 | > 100 | 
COc1cc(C2SCC(=O)N2c2cccc(Cl)c2)cc(OC)c1OC (stereo not given) | > 100 | > 100 | > 100 | > 100 | > 100 | > 100 | > 100 | 91.2 | > 100 | > 100 | > 100 | > 100 | > 100 | > 100 | > 100 | 
O=C(c1ccccc1)c1ccc2nc(-c3c(Cl)c(Cl)c(Cl)c(Cl)c3C(=O)N/N=C/c3ccc(Cl)cc3)[nH]c2c1 | > 100 | > 100 | > 100 | > 100 | > 100 | > 100 | > 100 | 71.3 | > 100 | > 100 | > 100 | 65.7 |  | > 100 | 21.1 | 88
C[N+](C)(C)CCc1ccccc1 | > 100 | > 100 | > 100 | > 100 | > 100 |  | > 100 | > 100 | > 100 | > 100 | > 100 | > 100 | > 100 | > 100 | > 100 | 
CCOC(=O)/C(C=Nc1c(C)n(C)n(-c2ccccc2)c1=O)=C(/C)O | > 100 | > 100 |  | > 100 | > 100 |  | > 100 | > 100 | > 100 |  | > 100 | > 100 | > 100 | > 100 | > 100 | 
CCCP1(=O)C=C(C)C(=C(Cl)Cl)C(C)=C1 (stereo not given) | 98.6 | 89.6 | 88.3 | > 100 | > 100 |  | > 100 | > 100 | 66.7 | > 100 | > 100 | > 100 | > 100 | > 100 | 54.7 | 
COC(=O)c1onc(-c2c(OC)cc(OC)cc2OC)c1C(=O)OC | > 100 | > 100 | > 100 | > 100 | > 100 |  | > 100 | > 100 |  | > 100 | > 100 | > 100 |  | > 100 | > 100 | 
O=C(NNCC(O)COc1ccccc1)c1ccccc1 (stereo not given) | > 100 | > 100 |  | > 100 | > 100 |  | > 100 | > 100 | > 100 | > 100 | > 100 | > 100 | > 100 | > 100 | > 100 | > 100
c1ccc2c(c1)C1CCCCCC21N1CCOCC1 (stereo not given) | > 100 |  | > 100 |  | > 100 |  | > 100 | > 100 | > 100 | > 100 | > 100 | > 100 | > 100 | > 100 | > 100 | 
O=C(O)c1ccc(C2COc3ccc(Cl)cc3C2)cc1 (stereo not given) | > 100 | > 100 | > 100 | > 100 | > 100 |  | > 100 | > 100 | > 100 | > 100 | > 100 | > 100 | > 100 | > 100 | > 100 | 
